According to US5593970A, “Heterocyclic anthracycline analogs” (priority 1994, dated 1997):
Values joined by “and” are separate entries in the source; they are usually repeats but may differ in a detail not shown here. Identical values can stand only once. Like-named read-outs stand apart in the source and are kept apart here.

Experiments:
solid tumors = assay: NCI assay, mean potency in solid tumors
Leukemia = assay: NCI assay, average per cancer type
NSC Lung = assay: NCI assay, average per cancer type; conditions: Homo sapiens
MALMB-3M = assay: NCI sulforhodamine B assay; type: cell-based, human
Description: (§1) These assays were carried out at the Developmental Therapeutics Program, Division of Cancer Treatment, National Cancer Institute (Bethesda, Md., U.S.A.). The method consists of incubating varying concentrations of the drug with an inoculum of cells for two days. […] The 57 cell lines included two mouse leukemia lines (P388 parental and adriamycin resistant) and […] human cell lines.
(§2) It should be noted that the first two parameters (GI50 and TGI) relate to antiproliferation effects while the third one (LC50) indicates true cytotoxicity. A value of -4 or greater is considered to denote resistance (inactivity).

MCF-7/ADR = assay: NCI sulforhodamine B assay; type: cell-based, human
Description: as §1, §2

SF-539 = assay: NCI sulforhodamine B assay; type: cell-based, human
Description: as §1, §2

UACC-257 = assay: NCI sulforhodamine B assay; type: cell-based, human
Description: as §1, §2

SK-MEL-5 = assay: NCI sulforhodamine B assay; type: cell-based, human
Description: as §1, §2

HCT-15 = assay: NCI sulforhodamine B assay; type: cell-based, human; conditions: 2880 min
Description: as §1, §2

SF-295 = assay: NCI sulforhodamine B assay; type: cell-based, human
Description: as §1, §2

LOX-IMVI = assay: NCI sulforhodamine B assay; type: cell-based, human
Description: as §1, §2

UACC-62 = assay: NCI sulforhodamine B assay; type: cell-based, human
Description: as §1, §2

SNB-19 = assay: NCI sulforhodamine B assay; type: cell-based, human; conditions: for GI50: read-out: Log10 GI50 (converted)
Description: as §1, §2

NCl-H226 = assay: NCI sulforhodamine B assay; type: cell-based, human
Description: as §1, §2

MCF-7 = assay: NCI sulforhodamine B assay; type: cell-based, human
Description: as §1, §2

SK-MEL-28 = assay: NCI sulforhodamine B assay; type: cell-based, human
Description: as §1, §2

SNB-75 = assay: NCI sulforhodamine B assay; type: cell-based, human
Description: as §1, §2

NCl-H23 = assay: NCI sulforhodamine B assay; type: cell-based, human
Description: as §1, §2

SW-620 = assay: NCI sulforhodamine B assay; type: cell-based, human; conditions: for GI50: Homo sapiens, read-out: Log10 GI50 (converted)
Description: as §1, §2

RXF-393L = assay: NCI sulforhodamine B assay; type: cell-based, human
Description: as §1, §2

UO-31 = assay: NCI sulforhodamine B assay; type: cell-based, human
Description: as §1, §2

tumor cell lines = assay: NCI sulforhodamine B assay, all cell lines
[1] = 48 h, read-out: Average LOG10 LC50

COC(=O)C1CC2=C(C(=O)c3c(cc4ccccc4c3O)C2=O)C(O[C@H]2C[C@H](NC(=O)C(F)(F)F)[C@H](O)[C@H](C)O2)O1 (mixture of isomers) [BCH-242, (1'S,1R,3S) and (1'S, 1S,3R)-Methyl[11-hydroxy-1-2',3',6'-trideoxy-3-trifluroacetamido-L-lyxohexopyranose)-5,12-dioxo-3,4,5,12-tetrahydroanthraceno[2,3-c]pyran-3-yl]formate]
GI50 (solid tumors; Homo sapiens, read-out: Average LOG10 GI50, Mean Potency in solid tumors): 0.661 µM | Average LOG10 LC50, Mean Potency in solid tumors (solid tumors; solid tumors, 2880 min): -5.32 ± 0.20 log molar | CC50 (Leukemia; [1]): > 100 µM | GI50 (Leukemia; read-out: Average LOG10 GI50): 0.316 µM | CC50 (NSC Lung; [1]): 6.17 µM | GI50 (NSC Lung; read-out: Average LOG10 GI50): 0.977 µM | IC100 (MALMB-3M; Homo sapiens, 48 h, MALMB-3M, read-out: Log10 TGI (converted)): 3.24 µM | CC50 (MALMB-3M; Homo sapiens, 48 h, read-out: Log10 LC50, MALMB-3M (converted)): 5.75 µM | GI50 (MALMB-3M; Homo sapiens, MALMB-3M, read-out: Log10 GI50 (converted)): 1.78 µM | Log10 GI50 (MALMB-3M; MALMB-3M): -6.02 log molar | Log10 TGI (MALMB-3M; MALMB-3M): -5.67 log molar | Log10 LC50 (MALMB-3M; MALMB-3M, 2880 min): -5.33 log molar | CC50 (MCF-7/ADR; Homo sapiens, NCI/ADR-RES, 48 h, read-out: Log10 LC50, MCF-7/ADR (converted)): 7.08 µM | Log10 LC50 (MCF-7/ADR; MCF-7/ADR, 2880 min): -5.15 log molar and -5.40 log molar | IC100 (SF-539; Homo sapiens, SF-539, 48 h, SF-539, read-out: Log10 TGI (converted)): 4.37 µM | CC50 (SF-539; Homo sapiens, SF-539, 48 h, read-out: Log10 LC50, SF-539 (converted)): 9.33 µM | GI50 (SF-539; Homo sapiens, SF-539, SF-539, read-out: Log10 GI50 (converted)): 2.04 µM | Log10 GI50 (SF-539; SF-539): -5.90 log molar | Log10 TGI (SF-539; SF-539): -5.60 log molar | Log10 LC50 (SF-539; SF-539, 2880 min): -5.30 log molar | CC50 (UACC-257; Homo sapiens, UACC-257, 48 h, read-out: Log10 LC50, UACC-257 (converted)): 6.61 µM | Log10 LC50 (UACC-257; UACC-257, 2880 min): -5.47 log molar | IC100 (SK-MEL-5; Homo sapiens, SK-MEL-5, 48 h, SK-MEL-5, read-out: Log10 TGI (converted)): 2.82 µM | CC50 (SK-MEL-5; Homo sapiens, SK-MEL-5, 48 h, read-out: Log10 LC50, SK-MEL-5 (converted)): 5.5 µM | Log10 TGI (SK-MEL-5; SK-MEL-5): -5.73 log molar | Log10 LC50 (SK-MEL-5; SK-MEL-5, 2880 min): -5.36 log molar | Log10 LC50 (HCT-15): -5.38 log molar | IC100 (SF-295; Homo sapiens, SF-295, 48 h, SF-295, read-out: Log10 TGI (converted)): 7.08 µM | GI50 (SF-295; Homo sapiens, SF-295, SF-295, read-out: Log10 GI50 (converted)): 2.4 µM | Log10 GI50 (SF-295; SF-295): -5.70 log molar | Log10 TGI (SF-295; SF-295): -5.41 log molar | CC50 (LOX-IMVI; Homo sapiens, LOX IMVI, 48 h, read-out: Log10 LC50, LOX-IMVI (converted)): 5.75 µM | Log10 LC50 (LOX-IMVI; LOX-IMVI, 2880 min): -5.43 log molar | IC100 (UACC-62; Homo sapiens, UACC-62, 48 h, UACC-62, read-out: Log10 TGI (converted)): 3.16 µM | CC50 (UACC-62; Homo sapiens, UACC-62, 48 h, read-out: Log10 LC50, UACC-62 (converted)): 5.62 µM | Log10 TGI (UACC-62; UACC-62): -5.77 log molar | Log10 LC50 (UACC-62; UACC-62, 2880 min): -5.37 log molar | CC50 (SNB-19; Homo sapiens, SNB-19, 48 h, read-out: Log10 LC50, SNB-19 (converted)): 36.3 µM | GI50 (SNB-19; Homo sapiens, SNB-19, SNB-19): 3.8 µM | GI50 (SNB-19; Homo sapiens, SNB-19): 2.29 µM | Log10 LC50 (SNB-19; SNB-19, 2880 min): -4.65 log molar | Log10 GI50 (NCl-H226): -5.71 log molar | Log10 TGI (NCl-H226): -5.44 log molar | IC100 (NCl-H226; Homo sapiens, 48 h, read-out: Log10 TGI (converted)): 6.61 µM | GI50 (NCl-H226; Homo sapiens, read-out: Log10 GI50 (converted)): 2.75 µM | CC50 (MCF-7; Homo sapiens, MCF7, 48 h, read-out: Log10 LC50, MCF-7 (converted)): 5.37 µM | GI50 (MCF-7; Homo sapiens, MCF7, MCF-7; read-out: Log10 GI50 (converted)): 0.324 µM | GI50 (MCF-7; Homo sapiens, MCF7; MCF-7; read-out: Log10 GI50 (converted)): 1.55 µM | Log10 LC50 (MCF-7; MCF-7; 2880 min): -5.38 log molar | CC50 (SK-MEL-28; Homo sapiens, SK-MEL-28, 48 h, read-out: Log10 LC50, SK-MEL-28 (converted)): 7.76 µM | Log10 LC50 (SK-MEL-28; SK-MEL-28, 2880 min): -5.37 log molar | IC100 (SNB-75; Homo sapiens, SNB-75, 48 h, SNB-75, read-out: Log10 TGI (converted)): 8.71 µM | CC50 (SNB-75; Homo sapiens, SNB-75, 48 h, read-out: Log10 LC50, SNB-75 (converted)): 30.2 µM | GI50 (SNB-75; Homo sapiens, SNB-75, SNB-75, read-out: Log10 GI50 (converted)): 2.95 µM | Log10 GI50 (SNB-75; SNB-75): -5.63 log molar | Log10 TGI (SNB-75; SNB-75): -5.25 log molar | Log10 LC50 (SNB-75; SNB-75, 2880 min): -4.73 log molar | IC100 (NCl-H23; Homo sapiens, 48 h, NCl-H23, read-out: Log10 TGI (converted)): 3.24 µM | CC50 (NCl-H23; Homo sapiens, NCI-H23, 48 h, read-out: Log10 LC50, NCl-H23 (converted)): 5.89 µM | Log10 GI50 (NCl-H23; NCl-H23): -5.99 log molar | Log10 TGI (NCl-H23; NCl-H23): -5.65 log molar | Log10 LC50 (NCl-H23; NCl-H23, 2880 min): -5.31 log molar | GI50 (SW-620; SW-620, SW-620): > 100 µM | GI50 (SW-620; SW-620): 1.32 µM | Log10 LC50 (SW-620; SW-620, 2880 min): -5.19 log molar | IC100 (RXF-393L; Homo sapiens, 48 h, RXF-393L, read-out: Log10 TGI (converted)): 2.63 µM | CC50 (RXF-393L; Homo sapiens, 48 h, read-out: Log10 LC50, RXF-393L (converted)): 5.37 µM | GI50 (RXF-393L; Homo sapiens, RXF-393L, read-out: Log10 GI50 (converted)): 1.29 µM | Log10 GI50 (RXF-393L; RXF-393L): -6.05 log molar | Log10 TGI (RXF-393L; RXF-393L): -5.67 log molar | Log10 LC50 (RXF-393L; RXF-393L, 2880 min): -5.32 log molar | Log10 GI50 (UO-31): -5.62 log molar | Log10 LC50 (UO-31; 2880 min): -4.77 log molar | antiproliferative and cytotoxic activity in words (tumor cell lines): most of the cell lines of solid tumors ultimately show cytotoxicity to the drug | CC50 (tumor cell lines; Homo sapiens, 48 h, read-out: Log10 LC50, Mean / MG-MID, all cell lines (converted)): 14.5 µM | IC100 (tumor cell lines; Homo sapiens, 48 h, read-out: Log10 TGI, Mean / MG-MID, all cell lines): 5.25 µM | Log10 TGI, Mean / MG-MID (tumor cell lines; all cell lines): -5.52 log molar | Log10 LC50, Mean / MG-MID (tumor cell lines; all cell lines, 2880 min): -5.09 log molar
